Earlier results on three molecules are cited in patent US6086919A, “Pharmaceutical composition containing the ace inhibitor ramipril and a dihydropyridine compound” (priority 1994, dated 2000).

In one data set the test system is vasodilatory effect. Particulars: in words.
Data set [1] has as its system hypertensive patients; patients with clinical signs of congestive heart failure.

As for `CCOC(=O)C1=C(C)NC(C)=C(C(=O)OC)[C@@H]1c1cccc(Cl)c1Cl` [S form], the “Vasodilatory effect compared with the R form” value with vasodilatory effect was “stronger than the vasodilatory effect of the R form”.
Take `CCOC(=O)C1=C(C)NC(C)=C(C(=O)OC)C1c1cccc(Cl)c1Cl` (centres unmarked) [felodipine]: the Light stability entry (when exposed to light) is on record as “decomposed when exposed to light”.
As for `CCOC(=O)[C@H](CCc1ccccc1)N[C@@H](C)C(=O)N1[C@H](C(=O)O)C[C@@H]2CCC[C@@H]21` [ramipril], under “stability”, the “Sensitivity of the substance” value is “sensitive to high temperature, moisture or compression”. Moreover, the Mortality result in data set [1] (clinical signs of congestive heart failure after acute myocardial infarction) is recorded as “reduce mortality”. In data set [1] (hypertensive patients), the “Reduction of blood pressure and peripheral arterial resistance” value was “reduction in peripheral arterial resistance and thus a reduction of the blood pressure without a compensatory rise in heart rate”.
